Laboratory results taken from article PMC4731470, “Inhibitory Effect of Bridged Nucleosides on Thermus aquaticus DNA Polymerase and Insight into the Binding Interactions” (PLoS ONE, 2016).

Assays:
Taq DNA polymerase [1] = molecular target: T1, Taq DNA polymerase (Thermus aquaticus, UniProt P19821); test: TaqMan qPCR (IC50 […]); EvaGreen primer extension assay (IC50 […]); type: biochemical
T1 construct: gene polA

Taq DNA polymerase [2] = molecular target: T1, Taq DNA polymerase; test: TaqMan qPCR kinetics (double-reciprocal plot); IC50 also by TaqMan qPCR and EvaGreen primer extension assay; type: biochemical

T1 sequence (P19821 whole entry): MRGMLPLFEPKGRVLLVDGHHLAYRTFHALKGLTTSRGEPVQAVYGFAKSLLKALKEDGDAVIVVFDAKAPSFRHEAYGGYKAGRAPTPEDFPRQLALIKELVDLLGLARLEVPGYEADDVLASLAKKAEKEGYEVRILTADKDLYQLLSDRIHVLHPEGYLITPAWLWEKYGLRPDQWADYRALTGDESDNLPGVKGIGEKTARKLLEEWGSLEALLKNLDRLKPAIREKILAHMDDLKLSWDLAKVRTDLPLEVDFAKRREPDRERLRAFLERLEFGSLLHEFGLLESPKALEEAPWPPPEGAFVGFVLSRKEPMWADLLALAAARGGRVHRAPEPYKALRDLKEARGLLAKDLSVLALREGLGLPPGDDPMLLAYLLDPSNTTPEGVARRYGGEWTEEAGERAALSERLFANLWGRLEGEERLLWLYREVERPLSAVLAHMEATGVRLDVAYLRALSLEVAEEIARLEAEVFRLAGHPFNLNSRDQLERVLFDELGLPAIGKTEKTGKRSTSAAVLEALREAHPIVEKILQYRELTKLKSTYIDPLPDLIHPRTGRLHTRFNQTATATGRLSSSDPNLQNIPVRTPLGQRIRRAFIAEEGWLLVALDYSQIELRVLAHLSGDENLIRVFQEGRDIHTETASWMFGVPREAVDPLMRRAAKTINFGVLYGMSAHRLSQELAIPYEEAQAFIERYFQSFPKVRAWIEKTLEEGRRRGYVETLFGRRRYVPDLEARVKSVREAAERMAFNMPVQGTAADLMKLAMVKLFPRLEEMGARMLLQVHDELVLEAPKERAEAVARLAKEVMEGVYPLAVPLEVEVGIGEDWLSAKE

SMILES | IC50 (Taq DNA polymerase [1]) | Ki (Taq DNA polymerase [2])
Nc1ccn([C@H]2CC[C@@H](COP(=O)(O)OP(=O)(O)OP(=O)(O)O)O2)c(=O)n1 [ddCTP] | 300 ± 100 µM | –
Cc1cn([C@@H]2O[C@@]3(CO)CO[C@@H]2[C@@H]3O)c(=O)[nH]c1=O [2',4'-bridged thymidine] | – | 9.7 ± 1.1 µM
